What was measured:
[1] = test system: neuropathic mechanical allodynia induced by CCI surgery; test: Chronic Constriction Injury (CCI) Neuropathic Pain Model in Rats with Pain Behavior Read Out; type: in vivo, male Sprague-Dawley rats; details: rat CCI; von Frey; gabapentin 100 mg/kg SID on days 0, 2, 5, 9; all post-dose time points
Description: Aim of the study was to test the efficacy of example 68 at ameliorating neuropathic mechanical allodynia. Male Sprague-Dawley rats were subject to chronic constriction injury of the sciatic nerve to induce neuropathic pain. Of those rats, 10 per group were assigned to treatment conditions involving BID drug administration for 10 days and behavioral assessment of mechanical sensitivity for allodynia with von Frey testing (vF). Behavior was assessed pre- and postdosing on Days 0, 2, 5, and 9. Rats were treated with Vehicle or test article BID on days 0 through 9, and rats in the gabapentin treatment group received gabapentin SID on days 0, 2, 5, and 9 in conjunction with behavioral assessment.
As vehicle Solutol/DMSO/WFI (40/10/50) was employed. Application volume for the per oral administration was 10 ml/kg.
Neuropathy was induced in male Sprague-Dawley rats by tying four loose ligatures of chromic gut around the common sciatic nerve in deeply anesthetized rats like described in Bennett, G. J., and Y. K. Xie. “A Peripheral Mononeuropathy in Rat That Produces Disorders of Pain Sensation like Those Seen in Man.” Pain 33 (1988): 87-107.
Mechanical allodynia was measured using 8 Semmes-Weinstein filaments (Stoelting©; Wood Dale, Ill., USA) with varying stiffness (0.4, 0.6, 1.0, 2.0, 4.0, 6.0, 8.0, and 15 g) according to the up-down method1. Animals were placed in individual acrylic chambers on a metal mesh surface and allowed to acclimate to their surroundings for a minimum of 15 minutes before testing. Each filament was presented perpendicular to the plantar surface with sufficient force to cause slight buckling against the paw and held for approximately 6 seconds or until a positive response is noted (paw sharply withdrawn).
Testing was initiated with the 2.0 g filament. In the absence of a paw withdrawal response, the next stronger stimulus was presented. In the event of paw withdrawal, the next weaker stimulus was used. […]
The 50% response threshold is calculated using the formula: […]

[2] = molecular target: T1, rat P2X4 (Rattus norvegicus, UniProt P51577); test: FLIPR Method for Rat P2X4 1321N1 Astrocytoma Cells; type: cell-based; details: 1321N1 stably expressing rat P2X4; agonist MgATP 5 μM (EC80)
T1 construct: expressed in transfected cells
T1 sequence (P51577 1-388): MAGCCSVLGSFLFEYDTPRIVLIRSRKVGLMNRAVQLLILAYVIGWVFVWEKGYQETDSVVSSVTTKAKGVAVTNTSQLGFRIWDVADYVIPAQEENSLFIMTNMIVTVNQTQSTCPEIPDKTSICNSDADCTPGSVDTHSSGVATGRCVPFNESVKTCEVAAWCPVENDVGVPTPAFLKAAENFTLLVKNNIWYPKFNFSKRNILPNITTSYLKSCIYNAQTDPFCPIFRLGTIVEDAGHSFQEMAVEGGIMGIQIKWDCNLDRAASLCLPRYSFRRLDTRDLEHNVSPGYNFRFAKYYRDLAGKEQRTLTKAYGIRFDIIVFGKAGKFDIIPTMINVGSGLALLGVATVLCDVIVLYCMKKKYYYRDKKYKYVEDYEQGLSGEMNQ
Method in brief: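 1321N1 cells stably expressing rat P2X4, Fluo8-AM loaded; compounds (25 μM to 1 nM final, ten concentrations) preincubated 30 min at room temperature, then MgATP added at 5 μM (EC80). Calcium fluorescence read on FLIPR before and after agonist; triplicate data normalized to agonist control, four-parameter fit gives IC50.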

[3] = test system: intraplantar Complete Freund's Adjuvant (CFA)-induced acute inflammatory pain; test: CFA Inflammation Model in Rats with Pain Behaviour Read Out; type: in vivo, male Sprague Dawley rats; details: for PWT 2 hour-post drug / PWT 4 hour-post drug: mean PWT
Description: Compound was tested in the model of intraplantar Complete Freund's Adjuvant (CFA)-induced acute (48-hours setting) inflammatory pain in male Sprague Dawley rats. Briefly, 25 μl of CFA at 1 mg/ml was injected into the plantar surface of one hind paw. Mechanical hyperalgesia was measured using the Pressure Application Measurement apparatus (Ugo Basile, Gemonio, Italy). A linearly increasing pressure was applied to an area of approximately 50 mm^2 of the plantar side of the hind paw until a behavioural response (paw withdrawal) was observed or until the pressure reached 1000 grams of force (gf). The pressure at which the behavioural response occurred was recorded as the “Paw Withdrawal Threshold” (PWT). Both CFA-injected and contralateral PWTs were determined for each rat, in each treatment group and at each time point of the studies. The measurements were performed blinded. […] Compound or vehicle (10% DMSO, 40% Solutol, 50% water for injection, vol/vol) were dosed via oral route (p.o.) once daily (QD) or twice daily (BID) during 3 days, starting before CFA injection. Data were expressed as the mean PWT for each treatment group and at each time point. PWT data were analysed by performing a two way ANOVA with repeated measures (time×treatment). Planned comparison of means (each versus vehicle) was performed by using a Dunnett's post hoc test, provided that a main effect was detected. For p values less than 0.05, the results were deemed to be statistically significant.

[4] = molecular target: T2, human P2X4 (Homo sapiens, UniProt Q99571); test: Human P2X4 HEK Cell FLIPR Assay; type: cell-based; details: HEK293 stably expressing human P2X4, agonist Bz-ATP 3 μM (EC80); for IC50: read-out: Human P2X4 HEK Cells (FLIPR Assay) avg IC50
T2 construct: expressed in transfected cells
T2 sequence (Q99571 1-388): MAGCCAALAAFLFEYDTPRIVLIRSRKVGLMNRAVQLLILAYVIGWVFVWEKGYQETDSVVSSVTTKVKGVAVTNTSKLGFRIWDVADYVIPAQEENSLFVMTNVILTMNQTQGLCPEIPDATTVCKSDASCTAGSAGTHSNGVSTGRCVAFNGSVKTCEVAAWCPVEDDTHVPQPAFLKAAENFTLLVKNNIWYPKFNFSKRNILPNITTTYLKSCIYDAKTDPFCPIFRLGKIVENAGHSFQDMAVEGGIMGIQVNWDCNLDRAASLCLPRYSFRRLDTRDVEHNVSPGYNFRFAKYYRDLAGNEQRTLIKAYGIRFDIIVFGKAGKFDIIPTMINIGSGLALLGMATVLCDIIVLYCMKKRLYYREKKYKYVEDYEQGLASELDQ
Method in brief: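 Compounds were preincubated 30 min at room temperature on Fluo8-AM-loaded HEK293 cells stably expressing human P2X4. The response was the calcium fluorescence rise on Bz-ATP addition.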

[5] = rat CFA, 50 mg/kg QD p.o. during 3 days
[6] = rat CFA, 100 mg/kg QD p.o. during 3 days

| Structure (SMILES) | paw withdrawal thresholds [1] | IC50 [2] [nM] | Rat P2X4 1321N1 Astrocytoma Cells (FLIPR Assay) avg Efficacy [2] [%] | PWT 2 hour-post drug [3, 5] [gf] | PWT 4 hour-post drug [3, 5] [gf] | PWT 2 hour-post drug [3, 6] [gf] | PWT 4 hour-post drug [3, 6] [gf] | pain after treatment ([3]; rat CFA, 50 and 100 mg/kg doses QD, 2 and 4 hours after last administration) | development of inflammatory pain after the injection of CFA ([3]; rat, oral administration QD during 3 days) | Human P2X4 HEK Cells (FLIPR Assay) avg Efficacy [4] [%] | IC50 [4] [nM] |
| --- | --- | --- | --- | --- | --- | --- | --- | --- | --- | --- | --- |
| NCC1(CC(=O)O)CCCCC1 [Gabapentin, gabapentin, reference compound] | significantly increased paw withdrawal thresholds | – | – | – | – | – | – | – | – | – | – |
| CC(=O)N(c1ccc(F)cc1)c1cc(NC(=O)Cc2cccc(F)c2Cl)ccn1 [Example 2, N-{4-[2-(2-chloro-3-fluorophenyl)acetamido]pyridin-2-yl}-N-(4-fluorophenyl)acetamide] | – | 358 | 95 | 727 | 688 | 763 | 839 | significantly reduced pain | prevented the development of inflammatory pain | 97 | 212 |
| CC(=O)N(c1cc(NC(=O)Cc2ccccc2Cl)ccn1)c1cc(F)ccc1Cl [Example 111, N-(2-chloro-5-fluorophenyl)-N-{4-[2-(2-chlorophenyl)acetamido]pyridin-2-yl}acetamide] | – | 320 | 100 | – | – | – | – | – | – | 96 | 204 |
| CC(=O)N(c1cc(F)cc(F)c1)c1cc(NC(=O)Cc2ccccc2Cl)ccn1 [Example 86, N-{4-[2-(2-chlorophenyl)acetamido]pyridin-2-yl}-N-(3,5-difluorophenyl)acetamide] | – | 393 | 98 | – | – | – | – | – | – | 98 | 196 |
| CC(=O)N(c1cc(NC(=O)Cc2c(Cl)cccc2Cl)ccn1)c1ccc(F)cc1F [Example 129, N-{4-[2-(2,6-dichlorophenyl)acetamido]pyridin-2-yl}-N-(2,4-difluorophenyl)acetamide] | – | 212 | 96 | – | – | – | – | – | – | 104 | 197 |
| CC(=O)N(c1cc(NC(=O)Cc2cccc(F)c2Cl)ccn1)c1cc(F)ccc1Cl [Example 113, N-(2-chloro-5-fluorophenyl)-N-{4-[2-(2-chloro-3-fluorophenyl)acetamido]pyridin-2-yl}acetamide] | – | 567 | 100 | – | – | – | – | – | – | 97 | 286 |
| CC(=O)N(c1ccc(F)c(C#N)c1)c1cc(NC(=O)Cc2c(Cl)cccc2Cl)ccn1 [Example 24, N-(3-cyano-4-fluorophenyl)-N-{4-[2-(2,6-dichlorophenyl)acetamido]pyridin-2-yl}acetamide] | – | 174 | 99 | – | – | – | – | – | – | 100 | 346 |
| CC(=O)N(c1ccc(Cl)c(F)c1)c1cc(NC(=O)Cc2cccc(F)c2Cl)ccn1 [Example 60, N-(4-chloro-3-fluorophenyl)-N-{4-[2-(2-chloro-3-fluorophenyl)acetamido]pyridin-2-yl}acetamide] | – | 434 | 94 | – | – | – | – | – | – | 96 | 454 |
| CC(=O)N(c1ccc(F)cc1)c1cc(NC(=O)Cc2ccccc2Cl)ccn1 [Example 36, N-{4-[2-(2-chlorophenyl)acetamido]pyridin-2-yl}-N-(4-fluorophenyl)acetamide] | – | 290 | 90 | – | – | – | – | – | – | 91 | 206 |
| CC(=O)N(c1cc(NC(=O)Cc2c(F)cccc2Cl)ccn1)c1ccc(F)cc1F [Example 130, N-{4-[2-(2-chloro-6-fluorophenyl)acetamido]pyridin-2-yl}-N-(2,4-difluorophenyl)acetamide] | – | 1520 | 80 | – | – | – | – | – | – | 97 | 259 |
| CC(=O)N(c1cccc(C(F)F)c1)c1cc(NC(=O)Cc2cccc(F)c2Cl)ccn1 [Example 4, N-{4-[2-(2-chloro-3-fluorophenyl)acetamido]pyridin-2-yl}-N-[3-(difluoromethyl)phenyl]acetamide] | – | 855 | 100 | – | – | – | – | – | – | 100 | 397 |

— patent US20230257351A1, “SUBSTITUTED N-[…] HAVING P2X4 RECEPTOR ANTAGONISTIC ACTIVITY” (Bayer Aktiengesellschaft, priority 2020, published 2023)
